What was measured:
primary HCO cells = assay: OsteoImage mineralization assay in primary HCO cells; type: cell-based, human; conditions: 14 days
Protocol: The biological activity of the RXFP2 agonists was tested in primary HCO cells (ScienCell Research Laboratories, San Diego, CA) by measuring their ability to induce osteoblast mineralization. A fluorescent-based assay (OSTEOIMAGE™ Mineralization Assay, Lonza, Switzerland) was used that measures hydroxyapatite, which is the main mineral component of bone. For this assay, HCO cells were seeded in 0.1% gelatin-coated 96 well black-walled flat-bottom clear plates at 7,000 cells/well in 100 μL/well of growth medium (DMEM, 10% FBS, 1× Pen/Strep) and allowed to attach overnight at 37° C. and 5% CO2. The next day, growth medium was changed to 100 μL/well of mineralization medium (growth medium+10 mM β-glycerophosphate, 50 μg/ml ascorbic acid, 10 nM dexamethasone), along with the respective treatments. Cells were treated with 1 μL/well of compound (1, 3, or 5 μM) or vehicle (serum-free DMEM, 0.05% DMSO). Medium and treatments were replaced every 2-3 days and cells were incubated at 37° C. and 5% CO2 for 14 days. Hydroxyapatite deposits were evaluated using the OSTEOIMAGE™ Mineralization Assay (Lonza, Switzerland). At treatment day 14, cells were rested 30 minutes at room temperature for equilibration, washed with 200 μL/well PBS, and fixed in 100 μL/well 4% formaldehyde for 15 minutes. Cells were washed once with 200 μL/well assay wash buffer and 100 μL/well of assay staining reagent was added as per manufacturer's protocol. Cells were incubated at room temperature for 30 minutes, protected from light. After staining, cells were washed 3 times with 200 μL/well wash buffer and wells were filled with a final 200 μL/well wash buffer. Mineralization was quantified using a CLARIOstar plate reader (BMG Labtech, Germany) and representative images of the hydroxyapatite bone-like nodules were captured using a fluorescence microscope (Nikon Eclipse TS100 attached to an Olympus DP70 camera). […] Mineralization activity induced by compounds was normalized to DMSO vehicle as 100% mineralization. […]

RXFP2 = biological target: T1, RXFP2 (Homo sapiens, UniProt Q8WXD0); assay: HTRF cAMP assay in HEK293T cells stably expressing RXFP2 (HEK-RXFP2); type: cell-based; conditions: for % EFF vs. 100 nM INSL3 (c): normalized to 100 nM INSL3 cAMP response
T1 construct: expressed in transfected cells
T1 sequence (Q8WXD0 whole entry): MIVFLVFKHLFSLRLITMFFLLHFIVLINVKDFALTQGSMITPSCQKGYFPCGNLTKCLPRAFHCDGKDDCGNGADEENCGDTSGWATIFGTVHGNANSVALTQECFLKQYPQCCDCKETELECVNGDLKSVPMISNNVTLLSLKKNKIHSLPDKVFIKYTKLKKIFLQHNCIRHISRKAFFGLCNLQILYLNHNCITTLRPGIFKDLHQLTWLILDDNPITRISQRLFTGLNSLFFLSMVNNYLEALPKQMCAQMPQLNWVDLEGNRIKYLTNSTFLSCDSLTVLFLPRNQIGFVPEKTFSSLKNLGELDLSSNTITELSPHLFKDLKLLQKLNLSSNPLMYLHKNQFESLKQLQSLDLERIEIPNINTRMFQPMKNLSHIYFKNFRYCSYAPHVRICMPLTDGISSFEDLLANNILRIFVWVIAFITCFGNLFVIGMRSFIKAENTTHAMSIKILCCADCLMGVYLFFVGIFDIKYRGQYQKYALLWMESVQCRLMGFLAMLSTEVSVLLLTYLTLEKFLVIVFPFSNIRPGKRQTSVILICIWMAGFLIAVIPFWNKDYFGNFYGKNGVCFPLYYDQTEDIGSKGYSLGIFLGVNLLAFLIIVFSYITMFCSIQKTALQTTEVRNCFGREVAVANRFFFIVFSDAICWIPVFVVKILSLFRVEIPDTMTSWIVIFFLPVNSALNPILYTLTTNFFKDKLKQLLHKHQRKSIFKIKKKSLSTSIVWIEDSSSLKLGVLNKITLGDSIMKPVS
In short: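 HEK-RXFP2 cells in serum-free DMEM were treated with compound up to 25 μM for 1 h at 37°C, and cAMP was read by HTRF immunoassay. Condition (a): 20,000 cells/well, 200 μM IBMX, normalized to 1 nM INSL3. Condition (b): 10,000 cells/well, 1 nM INSL3. Condition (c): 7,500 cells/well, no IBMX, 100 nM INSL3.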

[1] = test system: primary human calvarial osteoblasts (HCO); assay: CellTiter-Glo cytotoxicity assay in HCO cells; type: cell-based; conditions: 24 h
Protocol: Cytotoxicity induced by the compounds in HEK293T cells and primary human calvarial osteoblasts (HCO) (ScienCell Research Laboratories, San Diego, CA) were tested using the […]-GLO™ Luminescent Cell Viability Assay (Promega, Madison, WI). This is a luminescence-based assay that determines viable cells by measuring cellular adenosine triphosphate (ATP) production. The luciferase enzyme requires ATP to catalyze the conversion of beetle luciferin to oxyluciferin and light. Thus, luciferase activity is proportional to ATP accumulation in the cells. For this assay, 96-well flat-bottom opaque plates seeded with HEK293T cells at 5,000 cells/well and HCO cells at 3,000 cells/well in 100 μL/well of growth medium (DMEM, 10% FBS, 1× Penicillin/Streptomycin). After incubating overnight at 37° C., 5% CO2 to allow attachment, cells were treated with 1 μL/well of compound (25-0.1 μM) or DMSO vehicle and incubated an additional 24 hours. Then cells were equilibrated for 30 minutes at room temperature and 100 μL/well of […]-GLO™ Reagent was added. Plates were placed on an orbital shaker for 2 minutes and incubated at room temperature for 10 minutes to stabilize the luminescent signal, which was read immediately after on a CLARIOstar plate reader (BMG Labtech, Germany). […] The HEK293T results represent the means±SEM of 3 technical replicates. The HCO results represent the means±SEM of 3 independent experiments.

[2] = condition (c): 7,500 cells/well, IBMX omitted
[3] = lower concentrations than 25 μM

| activity in the HTRF cAMP screen (RXFP2; compared with Examples 187, 158, 153) | EC50 (RXFP2; condition (b): 10,000 cells/well, IBMX 200 μM) [nM] | % EFF vs. 1 nM INSL3 (b) (RXFP2; condition (b): 10,000 cells/well, IBMX 200 μM, normalized to 1 nM INSL3 cAMP response) | EC50 (RXFP2; [2]) [nM] | % EFF vs. 100 nM INSL3 (c) (RXFP2; [2]) | Structure (SMILES) | mineralization (hydroxyapatite) vs. DMSO vehicle (primary HCO cells; 1, 3, or 5 μM) | mineralization (hydroxyapatite) vs. DMSO vehicle (primary HCO cells; 5 μM) | cytotoxicity ([1]; 25 μM) | cytotoxicity [1, 3] |
| --- | --- | --- | --- | --- | --- | --- | --- | --- | --- |
| weaker activity | 18 to 23.3 | 113.66-166.88% | 46.2 to 73.7 | 38.35-49.8% | O=C1Nc2ccc(-c3cccc(C(F)(F)F)c3)cc2C(=O)N2CCN(C(=O)COc3ccc(OC(F)(F)F)cc3Br)C[C@@H]12 [Example 123, (S)-2-(2-(2-bromo-4-(trifluoromethoxy)phenoxy)acetyl)-8-(3-(trifluoromethyl)phenyl)-1,3,4,12a-tetrahydrobenzo[e]pyrazino[1,2-a][1,4]diazepine-6,12 (2H, 11H)-dione] | does not seem to increase mineralization | – | – | – |
| – | – | – | 167 to 1570 | 48.99-81.93% | O=C1Nc2ccc(-c3cc(C(F)(F)F)cc(C(F)(F)F)c3)cc2C(=O)N2CCN(C(=O)COc3ccc(OC(F)(F)F)cc3Br)C[C@@H]12 [Example 158, (S)-8-(3,5-Bis(trifluoromethyl)phenyl)-2-(2-(2-bromo-4-(trifluoromethoxy)phenoxy)acetyl)-1,3,4,12a-tetrahydrobenzo[e]pyrazino[1,2-a][1,4]diazepine-6,12 (2H, 11H)-dione] | – | significant increase | minimal toxicity | not toxic |

| Structure (SMILES) | activity in the HTRF cAMP screen (RXFP2; compared with Examples 187, 158, 153) | EC50 (RXFP2; condition (b): 10,000 cells/well, IBMX 200 μM) [nM] | % EFF vs. 1 nM INSL3 (b) (RXFP2; condition (b): 10,000 cells/well, IBMX 200 μM, normalized to 1 nM INSL3 cAMP response) | EC50 (RXFP2; [2]) [nM] | % EFF vs. 100 nM INSL3 (c) (RXFP2; [2]) | mineralization (hydroxyapatite) vs. DMSO vehicle (primary HCO cells; 1, 3, or 5 μM) | mineralization (hydroxyapatite) vs. DMSO vehicle (primary HCO cells; 5 μM) | cytotoxicity ([1]; 25 μM) | cytotoxicity [1, 3] |
| --- | --- | --- | --- | --- | --- | --- | --- | --- | --- |
| O=C1Nc2ccc(-c3cc(C(F)(F)F)cc(C(F)(F)F)c3)cc2C(=O)N2CCN(C(=O)COc3ccc(OC(F)(F)F)cc3I)C[C@@H]12 [Example 187, (S)-8-(3,5-bis(trifluoromethyl)phenyl)-2-(2-(2-iodo-4-(trifluoromethoxy)phenoxy)acetyl)-1,3,4,12a-tetrahydrobenzo[e]pyrazino[1,2-a][1,4]diazepine-6,12 (2H, 11H)-dione] | – | – | – | 128 to 568 | 87.28-147.65% | – | significant increase | minimal toxicity | not toxic |

From US20250134907A1, “FUSED DIAZEPINES AS AGONISTS OF THE INSULIN-LIKE 3 (INSL3) PEPTIDE RECEPTOR RXFP2 AND METHODS OF USE THEREOF” (The United States of America,as represented by the …, priority 2022, published 2025)
